Columns and labels:
[1] = test system: Tyrosine-protein kinase ABL1 (Homo sapiens), P00519 [M351T]; details: Compound concentration 1000.0 nM
[2] = molecular target: Activin receptor type-2B (Homo sapiens) (UniProt Q13705); details: Compound concentration 1000.0 nM
[3] = molecular target: Aurora kinase A (Homo sapiens) (UniProt O14965); details: Compound concentration 1000.0 nM
[4] = test system: Serine/threonine-protein kinase B-raf (Homo sapiens), P15056 [V600E]; details: Compound concentration 1000.0 nM
[5] = molecular target: Calcium/calmodulin-dependent protein kinase type 1D (Homo sapiens) (UniProt Q8IU85); details: Compound concentration 1000.0 nM
[6] = molecular target: Peripheral plasma membrane protein CASK (Homo sapiens) (UniProt O14936); details: Compound concentration 1000.0 nM
[7] = molecular target: Cyclin-dependent kinase 13 (Homo sapiens) (UniProt Q14004); details: Compound concentration 1000.0 nM
[8] = molecular target: Cyclin-dependent kinase 3 (Homo sapiens) (UniProt Q00526); details: Compound concentration 1000.0 nM
[9] = molecular target: Cyclin-dependent kinase 9 (Homo sapiens) (UniProt P50750); details: Compound concentration 1000.0 nM
[10] = molecular target: Casein kinase I isoform alpha (Homo sapiens) (UniProt P48729); details: Compound concentration 1000.0 nM
[11] = molecular target: Casein kinase I isoform gamma-3 (Homo sapiens) (UniProt Q9Y6M4); details: Compound concentration 1000.0 nM
[12] = molecular target: Death-associated protein kinase 3 (Homo sapiens) (UniProt O43293); details: Compound concentration 1000.0 nM
[13] = molecular target: Epithelial discoidin domain-containing receptor 1 (Homo sapiens) (UniProt Q08345); details: Compound concentration 1000.0 nM
[14] = molecular target: Mitogen-activated protein kinase kinase kinase 12 (Homo sapiens) (UniProt Q12852); details: Compound concentration 1000.0 nM
[15] = molecular target: Epidermal growth factor receptor (Homo sapiens) (UniProt P00533); details: Compound concentration 1000.0 nM
[16] = test system: Epidermal growth factor receptor (Homo sapiens), P00533 [UNDEFINED MUTATION]; details: Compound concentration 1000.0 nM
[17] = test system: Epidermal growth factor receptor (Homo sapiens), P00533 [T790M]; details: Compound concentration 1000.0 nM
[18] = test system: Receptor-type tyrosine-protein kinase FLT3 (Homo sapiens), P36888 [K663Q]; details: Compound concentration 1000.0 nM
[19] = molecular target: Beta-adrenergic receptor kinase 1 (Homo sapiens) (UniProt P25098); details: Compound concentration 1000.0 nM
[20] = molecular target: Serine/threonine-protein kinase haspin (Homo sapiens) (UniProt Q8TF76); details: Compound concentration 1000.0 nM
[21] = molecular target: Hormonally up-regulated neu tumor-associated kinase (Homo sapiens) (UniProt P57058); details: Compound concentration 1000.0 nM
[22] = test system: Mast/stem cell growth factor receptor Kit (Homo sapiens), P10721 [V559D]; details: Compound concentration 1000.0 nM
[23] = test system: Mast/stem cell growth factor receptor Kit (Homo sapiens), P10721 [V559D,T670I]; details: Compound concentration 1000.0 nM
[24] = molecular target: LIM domain kinase 1 (Homo sapiens) (UniProt P53667); details: Compound concentration 1000.0 nM
[25] = test system: Leucine-rich repeat serine/threonine-protein kinase 2 (Homo sapiens), Q5S007 [G2019S]; details: Compound concentration 1000.0 nM
[26] = molecular target: Serine/threonine-protein kinase MAK (Homo sapiens) (UniProt P20794); details: Compound concentration 1000.0 nM
[27] = molecular target: Mitogen-activated protein kinase kinase kinase 3 (Homo sapiens) (UniProt Q99759); details: Compound concentration 1000.0 nM
[28] = molecular target: Mitogen-activated protein kinase kinase kinase 10 (Homo sapiens) (UniProt Q02779); details: Compound concentration 1000.0 nM
[29] = molecular target: Serine/threonine-protein kinase MRCK beta (Homo sapiens) (UniProt Q9Y5S2); details: Compound concentration 1000.0 nM
[30] = molecular target: Mitogen-activated protein kinase 14 (Homo sapiens) (UniProt Q16539); details: Compound concentration 1000.0 nM
[31] = molecular target: Serine/threonine-protein kinase PAK 5 (Homo sapiens) (UniProt Q9P286); details: Compound concentration 1000.0 nM
[32] = molecular target: Cyclin-dependent kinase 15 (Homo sapiens) (UniProt Q96Q40); details: Compound concentration 1000.0 nM
[33] = molecular target: Phosphatidylinositol 4,5-bisphosphate 3-kinase catalytic subunit alpha isoform (Homo sapiens) (UniProt P42336); details: Compound concentration 1000.0 nM
[34] = molecular target: Phosphatidylinositol 4,5-bisphosphate 3-kinase catalytic subunit beta isoform (Homo sapiens) (UniProt P42338); details: Compound concentration 1000.0 nM
[35] = molecular target: Serine/threonine-protein kinase pim-1 (Homo sapiens) (UniProt P11309); details: Compound concentration 1000.0 nM
[36] = molecular target: Serine/threonine-protein kinase pim-2 (Homo sapiens) (UniProt Q9P1W9); details: Compound concentration 1000.0 nM
[37] = molecular target: Serine/threonine-protein kinase PLK2 (Homo sapiens) (UniProt Q9NYY3); details: Compound concentration 1000.0 nM
[38] = molecular target: Serine/threonine-protein kinase D3 (Homo sapiens) (UniProt O94806); details: Compound concentration 1000.0 nM
[39] = molecular target: Ribosomal protein S6 kinase alpha-3 (Homo sapiens) (UniProt P51812); details: Compound concentration 1000.0 nM
[40] = molecular target: Wee1-like protein kinase 2 (Homo sapiens) (UniProt P0C1S8); details: Compound concentration 1000.0 nM
[41] = molecular target: 5-hydroxytryptamine receptor 2B (Homo sapiens) (UniProt P41595); details: Compound concentration 10.0 uM
[42] = molecular target: 5-hydroxytryptamine receptor 5A (Homo sapiens) (UniProt P47898); details: Compound concentration 10.0 uM
[43] = molecular target: D(1A) dopamine receptor (Homo sapiens) (UniProt P21728); details: Compound concentration 10.0 uM
[44] = molecular target: Histamine H4 receptor (Homo sapiens) (UniProt Q9H3N8); details: Compound concentration 10.0 uM
[45] = molecular target: Muscarinic acetylcholine receptor M2 (Homo sapiens) (UniProt P08172); details: Compound concentration 10.0 uM

Sequence of Cyclin-dependent kinase 13 (Homo sapiens) (Q14004 whole entry, looked up): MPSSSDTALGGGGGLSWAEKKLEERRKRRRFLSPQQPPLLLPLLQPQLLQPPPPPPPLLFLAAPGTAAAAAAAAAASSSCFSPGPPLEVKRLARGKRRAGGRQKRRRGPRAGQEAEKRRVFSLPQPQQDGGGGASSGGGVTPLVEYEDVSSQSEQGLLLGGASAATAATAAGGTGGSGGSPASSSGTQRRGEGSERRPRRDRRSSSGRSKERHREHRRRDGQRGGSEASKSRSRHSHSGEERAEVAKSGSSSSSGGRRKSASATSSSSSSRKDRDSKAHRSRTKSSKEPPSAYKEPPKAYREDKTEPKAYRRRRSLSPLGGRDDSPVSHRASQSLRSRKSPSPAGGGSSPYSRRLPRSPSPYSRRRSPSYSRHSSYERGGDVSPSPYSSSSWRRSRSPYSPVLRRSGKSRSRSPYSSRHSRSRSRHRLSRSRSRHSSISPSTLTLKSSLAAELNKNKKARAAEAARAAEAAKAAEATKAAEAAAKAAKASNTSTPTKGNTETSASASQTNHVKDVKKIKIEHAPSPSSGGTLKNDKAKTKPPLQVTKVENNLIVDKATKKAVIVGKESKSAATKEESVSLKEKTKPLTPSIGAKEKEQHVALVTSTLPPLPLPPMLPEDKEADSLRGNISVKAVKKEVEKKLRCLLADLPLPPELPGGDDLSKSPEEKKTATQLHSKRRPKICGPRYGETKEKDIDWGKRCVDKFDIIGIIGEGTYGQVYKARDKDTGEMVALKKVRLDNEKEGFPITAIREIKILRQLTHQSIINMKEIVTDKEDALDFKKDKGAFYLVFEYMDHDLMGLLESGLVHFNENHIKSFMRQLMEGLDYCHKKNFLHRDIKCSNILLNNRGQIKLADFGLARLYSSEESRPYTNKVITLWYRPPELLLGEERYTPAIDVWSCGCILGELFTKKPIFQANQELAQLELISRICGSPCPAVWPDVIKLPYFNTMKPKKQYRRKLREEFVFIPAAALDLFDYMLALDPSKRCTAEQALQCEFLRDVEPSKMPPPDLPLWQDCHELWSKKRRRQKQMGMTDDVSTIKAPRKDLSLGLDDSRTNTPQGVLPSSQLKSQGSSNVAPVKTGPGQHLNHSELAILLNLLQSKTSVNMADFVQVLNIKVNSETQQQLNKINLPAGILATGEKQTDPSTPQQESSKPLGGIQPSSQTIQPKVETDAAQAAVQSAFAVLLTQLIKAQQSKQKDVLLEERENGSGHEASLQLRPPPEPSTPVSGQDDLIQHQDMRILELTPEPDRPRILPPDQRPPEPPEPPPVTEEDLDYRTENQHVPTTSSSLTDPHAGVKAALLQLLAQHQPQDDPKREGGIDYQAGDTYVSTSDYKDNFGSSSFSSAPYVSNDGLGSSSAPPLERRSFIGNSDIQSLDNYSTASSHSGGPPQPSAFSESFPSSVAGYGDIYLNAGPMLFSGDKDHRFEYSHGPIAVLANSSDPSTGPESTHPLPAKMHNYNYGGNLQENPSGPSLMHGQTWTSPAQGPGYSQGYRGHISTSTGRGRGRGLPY
Sequence of Phosphatidylinositol 4,5-bisphosphate 3-kinase catalytic subunit beta isoform (Homo sapiens) (P42338 whole entry, looked up, canonical isoform): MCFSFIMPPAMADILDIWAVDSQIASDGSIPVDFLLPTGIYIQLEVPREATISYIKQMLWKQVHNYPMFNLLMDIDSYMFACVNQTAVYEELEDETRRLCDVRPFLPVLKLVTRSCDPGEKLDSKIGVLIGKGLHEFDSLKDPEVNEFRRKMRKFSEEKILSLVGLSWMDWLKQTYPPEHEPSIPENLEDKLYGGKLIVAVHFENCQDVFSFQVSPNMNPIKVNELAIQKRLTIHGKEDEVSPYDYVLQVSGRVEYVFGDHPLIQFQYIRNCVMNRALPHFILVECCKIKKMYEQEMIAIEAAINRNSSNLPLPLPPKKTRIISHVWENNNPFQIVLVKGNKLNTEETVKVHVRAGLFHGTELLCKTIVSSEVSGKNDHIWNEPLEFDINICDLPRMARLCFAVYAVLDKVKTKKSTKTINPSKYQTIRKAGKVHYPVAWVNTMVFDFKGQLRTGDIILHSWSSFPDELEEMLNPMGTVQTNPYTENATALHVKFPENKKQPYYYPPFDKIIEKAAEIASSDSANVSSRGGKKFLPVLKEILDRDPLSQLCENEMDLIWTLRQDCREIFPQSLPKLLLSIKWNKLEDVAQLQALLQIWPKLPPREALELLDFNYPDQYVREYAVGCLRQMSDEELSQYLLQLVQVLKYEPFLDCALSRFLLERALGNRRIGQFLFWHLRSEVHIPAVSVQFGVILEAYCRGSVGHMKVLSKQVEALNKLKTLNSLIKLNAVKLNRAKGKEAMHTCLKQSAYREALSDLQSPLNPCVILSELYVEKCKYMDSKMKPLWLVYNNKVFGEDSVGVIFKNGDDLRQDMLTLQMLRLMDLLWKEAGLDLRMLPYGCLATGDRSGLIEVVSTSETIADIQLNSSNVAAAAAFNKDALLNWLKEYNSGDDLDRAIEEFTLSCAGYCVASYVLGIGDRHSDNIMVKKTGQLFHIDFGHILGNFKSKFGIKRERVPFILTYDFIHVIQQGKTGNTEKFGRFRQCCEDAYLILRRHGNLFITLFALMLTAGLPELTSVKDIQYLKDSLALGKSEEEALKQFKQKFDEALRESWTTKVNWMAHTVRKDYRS
Sequence of Epithelial discoidin domain-containing receptor 1 (Homo sapiens) (Q08345 whole entry, the tested form may be a part): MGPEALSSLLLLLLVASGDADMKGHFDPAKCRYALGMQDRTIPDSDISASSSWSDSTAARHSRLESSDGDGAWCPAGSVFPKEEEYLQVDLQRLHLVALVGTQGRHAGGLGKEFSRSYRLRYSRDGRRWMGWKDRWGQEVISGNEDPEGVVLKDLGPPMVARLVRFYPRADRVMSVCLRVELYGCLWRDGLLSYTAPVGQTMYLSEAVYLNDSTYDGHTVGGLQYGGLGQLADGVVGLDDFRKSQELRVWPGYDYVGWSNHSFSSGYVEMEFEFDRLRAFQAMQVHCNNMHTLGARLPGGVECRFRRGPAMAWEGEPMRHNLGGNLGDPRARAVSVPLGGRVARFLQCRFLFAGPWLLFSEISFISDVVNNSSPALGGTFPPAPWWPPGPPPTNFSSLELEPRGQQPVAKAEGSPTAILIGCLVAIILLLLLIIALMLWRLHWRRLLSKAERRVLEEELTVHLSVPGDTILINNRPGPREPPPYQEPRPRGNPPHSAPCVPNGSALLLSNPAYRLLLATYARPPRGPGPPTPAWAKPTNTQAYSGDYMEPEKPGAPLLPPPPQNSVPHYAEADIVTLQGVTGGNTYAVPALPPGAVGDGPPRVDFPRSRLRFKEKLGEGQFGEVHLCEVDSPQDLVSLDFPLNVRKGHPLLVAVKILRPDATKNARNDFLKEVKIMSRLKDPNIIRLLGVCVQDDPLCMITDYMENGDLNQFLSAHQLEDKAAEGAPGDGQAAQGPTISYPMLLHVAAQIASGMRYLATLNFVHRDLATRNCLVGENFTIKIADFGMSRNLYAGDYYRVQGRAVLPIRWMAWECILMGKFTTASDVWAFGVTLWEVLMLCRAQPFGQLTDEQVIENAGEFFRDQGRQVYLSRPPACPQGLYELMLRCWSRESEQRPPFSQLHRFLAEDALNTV
Sequence of Hormonally up-regulated neu tumor-associated kinase (Homo sapiens) (P57058 whole entry): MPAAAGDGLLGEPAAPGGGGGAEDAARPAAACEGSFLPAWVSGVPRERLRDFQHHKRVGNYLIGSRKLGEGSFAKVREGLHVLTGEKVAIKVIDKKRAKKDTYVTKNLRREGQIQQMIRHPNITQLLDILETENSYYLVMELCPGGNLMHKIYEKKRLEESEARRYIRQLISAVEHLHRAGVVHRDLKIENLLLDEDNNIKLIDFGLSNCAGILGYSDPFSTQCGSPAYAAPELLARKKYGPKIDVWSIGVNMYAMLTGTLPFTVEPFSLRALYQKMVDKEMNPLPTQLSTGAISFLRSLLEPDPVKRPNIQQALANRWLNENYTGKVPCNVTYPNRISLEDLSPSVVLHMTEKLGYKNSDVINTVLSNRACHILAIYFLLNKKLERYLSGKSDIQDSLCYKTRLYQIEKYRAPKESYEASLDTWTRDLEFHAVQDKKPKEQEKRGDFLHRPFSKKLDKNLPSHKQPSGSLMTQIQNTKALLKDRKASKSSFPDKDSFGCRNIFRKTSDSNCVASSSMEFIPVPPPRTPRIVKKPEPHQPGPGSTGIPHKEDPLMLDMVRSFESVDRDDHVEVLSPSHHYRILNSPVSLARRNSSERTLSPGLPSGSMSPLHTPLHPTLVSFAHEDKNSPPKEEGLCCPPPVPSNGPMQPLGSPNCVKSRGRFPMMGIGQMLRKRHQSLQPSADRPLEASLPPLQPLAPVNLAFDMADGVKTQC
Sequence of Serine/threonine-protein kinase pim-2 (Homo sapiens) (Q9P1W9 whole entry, looked up): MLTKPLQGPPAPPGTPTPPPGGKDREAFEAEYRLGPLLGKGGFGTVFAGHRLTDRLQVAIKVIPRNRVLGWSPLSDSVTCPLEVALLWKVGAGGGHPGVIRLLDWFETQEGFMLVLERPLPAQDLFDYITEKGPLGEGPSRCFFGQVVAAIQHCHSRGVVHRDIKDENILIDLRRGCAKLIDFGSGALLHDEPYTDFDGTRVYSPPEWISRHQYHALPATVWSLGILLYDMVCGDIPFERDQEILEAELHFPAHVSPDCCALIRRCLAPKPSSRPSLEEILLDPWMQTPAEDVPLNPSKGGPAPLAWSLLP
Sequence of Histamine H4 receptor (Homo sapiens) (Q9H3N8 whole entry): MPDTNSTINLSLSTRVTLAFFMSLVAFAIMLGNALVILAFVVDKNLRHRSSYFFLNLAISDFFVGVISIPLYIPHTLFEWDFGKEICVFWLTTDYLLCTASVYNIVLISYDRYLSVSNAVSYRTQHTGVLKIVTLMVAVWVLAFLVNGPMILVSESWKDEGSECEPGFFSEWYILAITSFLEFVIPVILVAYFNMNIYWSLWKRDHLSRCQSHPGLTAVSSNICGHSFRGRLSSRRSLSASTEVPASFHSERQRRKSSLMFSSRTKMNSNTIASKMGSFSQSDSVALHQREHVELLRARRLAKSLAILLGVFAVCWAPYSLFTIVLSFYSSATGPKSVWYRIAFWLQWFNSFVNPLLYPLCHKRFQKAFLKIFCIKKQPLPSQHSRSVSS

N#Cc1ccc(Nc2ccc3[nH]c(=O)[nH]c3c2)c(Cl)c1
inactive: residual activity [1] 100% | residual activity [2] 81% | residual activity [3] 87% | residual activity [4] 100% | residual activity [5] 92% | residual activity [6] 100% | residual activity [7] 100% | residual activity [8] 100% | residual activity [9] 100% | residual activity [10] 100% | residual activity [11] 99% | residual activity [12] 92% | residual activity [13] 100% | residual activity [14] 100% | residual activity [15] 100% | residual activity [16] 62% | residual activity [17] 91% | residual activity [18] 92% | residual activity [19] 100% | residual activity [20] 100% | residual activity [21] 98% | residual activity [22] 100% | residual activity [23] 100% | residual activity [24] 100% | residual activity [25] 93% | residual activity [26] 100% | residual activity [27] 84% | residual activity [28] 99% | residual activity [29] 100% | residual activity [30] 93% | residual activity [31] 100% | residual activity [32] 94% | residual activity [33] 77% | residual activity [34] 100% | residual activity [35] 90% | residual activity [36] 83% | residual activity [37] 86% | residual activity [38] 100% | residual activity [39] 100% | residual activity [40] 100% | inhibition [41] 11% | inhibition [42] -7.6% | inhibition [43] -7.86% | inhibition [44] 4.43% | inhibition [45] 3.51%

O=C1CCc2cc(Nc3cc(OC4CCOCC4)c([N+](=O)[O-])cc3Cl)ccc2N1
inactive: residual activity [1] 100% | residual activity [2] 89% | residual activity [3] 87% | residual activity [4] 100% | residual activity [5] 100% | residual activity [6] 100% | residual activity [7] 100% | residual activity [8] 100% | residual activity [9] 97% | residual activity [10] 100% | residual activity [11] 67% | residual activity [12] 91% | residual activity [13] 94% | residual activity [14] 100% | residual activity [15] 100% | residual activity [16] 65% | residual activity [17] 85% | residual activity [18] 100% | residual activity [19] 87% | residual activity [20] 100% | residual activity [21] 93% | residual activity [22] 100% | residual activity [23] 94% | residual activity [24] 100% | residual activity [25] 100% | residual activity [26] 100% | residual activity [27] 95% | residual activity [28] 94% | residual activity [29] 90% | residual activity [30] 100% | residual activity [31] 100% | residual activity [32] 73% | residual activity [33] 79% | residual activity [34] 97% | residual activity [35] 96% | residual activity [36] 84% | residual activity [37] 92% | residual activity [38] 92% | residual activity [39] 100% | residual activity [40] 96% | inhibition [41] 3.31% | inhibition [42] 6.14% | inhibition [43] 7.4% | inhibition [44] 11.6% | inhibition [45] 5.41%

Source: ChEMBL document CHEMBL4507304, “Data for DCP probe TP-021” (2021)
